# Results published in US10670605B2, “Cysteine reactive probes and uses thereof” (The Scripps Research Institute, priority 2015, dated 2020).
# Columns and labels:
# Assay in all cases: Competitive isoTOP-ABPP in situ (fragment-treated cells)
# Assay type in all cases: cell-based
# [1] = target: T1, cysteines in MDA-MB-231 and Ramos cells (Homo sapiens, UniProt Q9BTE3); settings: 200 μM, insitu
# T1 sequence (Q9BTE3 1-642): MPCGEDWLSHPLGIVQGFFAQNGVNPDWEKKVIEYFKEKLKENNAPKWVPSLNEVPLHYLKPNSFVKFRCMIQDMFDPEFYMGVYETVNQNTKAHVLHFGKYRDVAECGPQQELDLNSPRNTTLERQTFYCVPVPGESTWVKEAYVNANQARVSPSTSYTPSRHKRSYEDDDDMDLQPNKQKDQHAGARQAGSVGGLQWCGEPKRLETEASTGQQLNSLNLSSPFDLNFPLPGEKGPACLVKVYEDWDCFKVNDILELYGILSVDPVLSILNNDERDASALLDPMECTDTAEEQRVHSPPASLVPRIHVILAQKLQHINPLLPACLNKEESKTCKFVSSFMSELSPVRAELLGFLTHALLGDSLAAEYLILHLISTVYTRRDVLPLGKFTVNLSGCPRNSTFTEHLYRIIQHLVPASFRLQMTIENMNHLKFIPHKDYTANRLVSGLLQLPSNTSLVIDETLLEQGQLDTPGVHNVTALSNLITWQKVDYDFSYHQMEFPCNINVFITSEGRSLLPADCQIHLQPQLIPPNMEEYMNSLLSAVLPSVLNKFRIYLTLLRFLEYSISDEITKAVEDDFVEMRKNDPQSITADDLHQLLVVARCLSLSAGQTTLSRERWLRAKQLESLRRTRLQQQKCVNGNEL
# [2] = target: cysteines in MDA-MB-231 and Ramos cells (Homo sapiens, UniProt O95881); settings: 200 μM, insitu, 231
# Chain of cysteines in MDA-MB-231 and Ramos cells (Homo sapiens, UniProt O95881) (O95881 27-172): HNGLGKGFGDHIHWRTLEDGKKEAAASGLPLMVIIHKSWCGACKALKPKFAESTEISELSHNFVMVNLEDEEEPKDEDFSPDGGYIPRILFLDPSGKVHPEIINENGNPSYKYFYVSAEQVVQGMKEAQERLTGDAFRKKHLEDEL
# [3] = target: T2, cysteines in MDA-MB-231 and Ramos cells (Homo sapiens, UniProt P05091)
# T2 sequence (P05091 18-517): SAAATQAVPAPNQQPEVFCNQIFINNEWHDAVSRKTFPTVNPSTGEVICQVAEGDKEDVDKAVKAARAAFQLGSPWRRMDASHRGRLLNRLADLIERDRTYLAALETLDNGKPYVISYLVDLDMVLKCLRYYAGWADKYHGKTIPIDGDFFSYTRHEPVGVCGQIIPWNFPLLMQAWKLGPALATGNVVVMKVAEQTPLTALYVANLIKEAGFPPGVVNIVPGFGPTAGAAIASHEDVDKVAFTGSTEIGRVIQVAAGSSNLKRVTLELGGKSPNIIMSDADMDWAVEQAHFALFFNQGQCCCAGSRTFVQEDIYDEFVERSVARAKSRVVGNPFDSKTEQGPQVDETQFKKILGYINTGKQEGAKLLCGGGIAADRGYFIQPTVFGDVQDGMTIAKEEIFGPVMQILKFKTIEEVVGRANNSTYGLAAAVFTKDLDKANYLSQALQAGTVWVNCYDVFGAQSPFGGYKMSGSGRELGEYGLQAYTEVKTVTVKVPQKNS
# [4] = target: T3, cysteines in MDA-MB-231 and Ramos cells (Homo sapiens, UniProt Q9UKX7)
# T3 sequence (Q9UKX7 1-468): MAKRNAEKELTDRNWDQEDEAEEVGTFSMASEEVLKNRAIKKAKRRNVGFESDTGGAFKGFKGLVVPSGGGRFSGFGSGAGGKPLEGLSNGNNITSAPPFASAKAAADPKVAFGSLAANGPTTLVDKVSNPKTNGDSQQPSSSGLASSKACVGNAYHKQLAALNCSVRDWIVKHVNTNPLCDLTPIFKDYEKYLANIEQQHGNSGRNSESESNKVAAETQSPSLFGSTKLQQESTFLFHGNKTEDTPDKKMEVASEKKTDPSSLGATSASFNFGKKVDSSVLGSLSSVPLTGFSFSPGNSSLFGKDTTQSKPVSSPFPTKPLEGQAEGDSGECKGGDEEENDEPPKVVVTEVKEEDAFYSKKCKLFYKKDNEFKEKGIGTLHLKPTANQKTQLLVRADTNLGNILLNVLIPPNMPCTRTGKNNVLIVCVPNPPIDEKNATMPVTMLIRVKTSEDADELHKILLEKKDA
# [5] = target: T4, cysteines in MDA-MB-231 and Ramos cells (Homo sapiens, UniProt Q9NXJ5); settings: 200 μM, insitu
# T4 sequence (Q9NXJ5 1-209): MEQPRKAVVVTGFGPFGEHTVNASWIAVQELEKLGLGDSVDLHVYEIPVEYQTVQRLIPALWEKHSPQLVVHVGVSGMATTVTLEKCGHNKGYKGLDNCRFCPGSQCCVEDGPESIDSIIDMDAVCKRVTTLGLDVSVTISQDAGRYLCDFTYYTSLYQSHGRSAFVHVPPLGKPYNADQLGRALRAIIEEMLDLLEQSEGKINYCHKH
# [6] = target: T5, cysteines in MDA-MB-231 and Ramos cells (Homo sapiens, UniProt Q6QNY0); settings: 200 μM, insitu
# T5 sequence (Q6QNY0 1-202): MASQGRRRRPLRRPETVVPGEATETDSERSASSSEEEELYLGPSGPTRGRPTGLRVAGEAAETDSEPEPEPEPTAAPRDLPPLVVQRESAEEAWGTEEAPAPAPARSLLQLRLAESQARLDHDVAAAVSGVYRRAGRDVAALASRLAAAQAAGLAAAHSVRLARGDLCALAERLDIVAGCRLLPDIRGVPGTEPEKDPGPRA
# [7] = target: T6, cysteines in MDA-MB-231 and Ramos cells (Homo sapiens, UniProt Q9UPT9)
# T6 sequence (Q9UPT9 1-525): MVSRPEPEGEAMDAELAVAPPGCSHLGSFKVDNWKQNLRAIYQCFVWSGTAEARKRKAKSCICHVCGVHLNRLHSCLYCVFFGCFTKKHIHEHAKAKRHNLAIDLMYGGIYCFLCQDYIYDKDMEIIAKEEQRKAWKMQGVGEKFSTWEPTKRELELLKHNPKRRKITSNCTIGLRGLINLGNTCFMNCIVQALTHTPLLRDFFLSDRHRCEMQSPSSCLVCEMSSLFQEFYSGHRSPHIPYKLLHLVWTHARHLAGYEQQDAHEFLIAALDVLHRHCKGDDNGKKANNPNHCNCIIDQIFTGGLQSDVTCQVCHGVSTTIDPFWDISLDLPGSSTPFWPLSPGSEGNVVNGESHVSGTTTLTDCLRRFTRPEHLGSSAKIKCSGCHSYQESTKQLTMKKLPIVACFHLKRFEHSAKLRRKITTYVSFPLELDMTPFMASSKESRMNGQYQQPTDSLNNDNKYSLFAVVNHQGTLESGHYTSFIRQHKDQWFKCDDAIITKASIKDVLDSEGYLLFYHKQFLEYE
structure (smiles),measurement,setting,value
COc1ccccc1OCCNC(=O)CCl [compound 28],isoTOP-ABPP ratio Q9BTE3_C325,[1]; 231,1.0
Cc1ccc(C=C(C#N)C(=O)NCCN2CCOCC2)cc1 [compound 41],isoTOP-ABPP ratio O95881_C66,[2],1.0
same,isoTOP-ABPP ratio P05091_C319,"[3]; 200 μM, insitu, 231",0.9
same,isoTOP-ABPP ratio Q9BTE3_C325,[1]; 231,0.6
same,isoTOP-ABPP ratio Q9UKX7_C151,"[4]; 200 μM, insitu, 231",0.8
O=C(CCl)NC(=O)NC12CC3CC(CC(C3)C1)C2 [compound 12],"isoTOP-ABPP ratio, cysteine O95881_C66",[2],20.0
same,"isoTOP-ABPP ratio, cysteine P05091_C319","[3]; 200 μM, insitu, 231",20.0
same,"isoTOP-ABPP ratio, cysteine Q9NXJ5_C149",[5]; 231,3.9
same,"isoTOP-ABPP ratio, cysteine Q9UKX7_C151","[4]; 200 μM, insitu, 231",6.7
O=C(CCl)NCCc1c[nH]c2ccccc12 [compound 13],"isoTOP-ABPP ratio, cysteine O95881_C66",[2],20.0
same,"isoTOP-ABPP ratio, cysteine Q6QNY0_C168",[6]; ramos,1.2
same,"isoTOP-ABPP ratio, cysteine Q9NXJ5_C149",[5]; ramos,20.0
same,"isoTOP-ABPP ratio, cysteine Q9UPT9_C171","[7]; 200 μM, insitu, ramos",3.2
COc1ccc(C2CC(c3cccs3)=NN2C(=O)CCl)cc1 (stereo not shown) [compound 4],isoTOP-ABPP reactivity P05091_C319 ALDH2,[3]; 100 μM in situ 231,20.0
Cn1cc(S(=O)(=O)N2CCOCC2)cc1C(=O)NC(=O)CCl [compound 11],"isoTOP-ABPP ratio, cysteine Q9UKX7_C151",[4]; 100 μM in situ 231,1.0
same,"isoTOP-ABPP ratio, cysteine Q9UPT9_C171",[7]; 100 μM in situ 231,0.8
C=CC(=O)Nc1cc(F)c(N2CCN(C(=O)OC(C)(C)C)CC2)c(F)c1 [compound 38],isoTOP-ABPP ratio O95881_C66,[2],1.0
same,isoTOP-ABPP ratio Q6QNY0_C168,[6]; 231,1.0
same,isoTOP-ABPP ratio Q9BTE3_C325,[1]; 231,2.2
CC1CCc2ccccc2N1C(=O)CCl (stereo not shown) [compound 45],isoTOP-ABPP ratio P05091_C319,"[3]; 200 μM, insitu, 231",20.0
same,isoTOP-ABPP ratio Q9BTE3_C325,[1]; 231,20.0
COc1ccc2c(c1)CCCN2C(=O)CCl [compound 2],isoTOP-ABPP reactivity Q9UKX7_C151 NUP50,"[4]; 200 μM, insitu, 231",6.1
O=C(CCl)N1CCN(S(=O)(=O)c2ccccc2F)CC1 [compound 10],"isoTOP-ABPP ratio, cysteine Q9NXJ5_C149",[5]; ramos,11.0
same,"isoTOP-ABPP ratio, cysteine Q9UPT9_C171","[7]; 200 μM, insitu, ramos",9.3
O=C(CCl)N1CCN(CC(=O)N2CCOCC2)CC1 [compound 29],isoTOP-ABPP ratio P05091_C319,"[3]; 200 μM, insitu, ramos",10.5
same,isoTOP-ABPP ratio Q6QNY0_C168,[6]; ramos,1.6
C=CC(=O)N(Cc1cccnc1)c1cc(C(F)(F)F)cc(C(F)(F)F)c1 [compound 31],isoTOP-ABPP ratio Q9BTE3_C325,[1]; 231,1.9
same,isoTOP-ABPP ratio Q9BTE3_C325,[1]; ramos,3.5
